Key:
[1] = target: T1, Serine-protein kinase ATM (Homo sapiens, UniProt Q13315); assay: Inhibition of ATM phosphorylation at Ser-1981 residue in human HT-29 cells incubated for 1 hr followed by X-ray irradiation by Hoechst staining based fluorescence plate reader analysis; type: cell-based
[2] = target: Serine/threonine-protein kinase ATR (Homo sapiens, UniProt Q13535); assay: Inhibition of ATR in human HT-29 cells assessed as reduction in Chk1 phosphorylation at Ser-345 residue after 60 mins in presence of 4-nitroquinoline-1-oxide by Hoechst 33258 staining based plate reader analysis; type: cell-based
[3] = in vitro; details: human, hepatocytes
[4] = in vitro; details: rat, hepatocytes
[5] = physchem; details: octanol/buffer, pH 7.4
[6] = target: Voltage-gated inwardly rectifying potassium channel KCNH2 (Homo sapiens, UniProt Q12809)
[7] = target: Serine/threonine-protein kinase mTOR (Homo sapiens, UniProt P42345); assay: Inhibition of C-terminal FLAG-tagged recombinant mTOR (1362 to 2549 residues) (unknown origin) using Biotin-Ahx-Lys-Lys-Ala-Asn-Gln-Val-Phe-Leu-Gly-Phe-Thr-Tyr-Val-Ala-Pro-Ser-Val-Leu-Glu-Ser-Val-Lys-Glu-NH2 as substrate after 90 mins by AlphaScreen assay
[8] = target: Phosphatidylinositol 4,5-bisphosphate 3-kinase catalytic subunit alpha isoform (Homo sapiens, UniProt P42336); assay: Inhibition of human recombinant PI3Kalpha using PIP2/ATP as substrate incubated for 20 mins followed by substrate addition by Kinase Glo reagent based luminescence assay
[9] = target: Phosphatidylinositol 4,5-bisphosphate 3-kinase catalytic subunit beta isoform (Homo sapiens, UniProt P42338); assay: Inhibition of human recombinant PI3Kbeta using PIP2/ATP as substrate incubated for 20 mins followed by substrate addition by Kinase Glo reagent based luminescence assay
[10] = target: Phosphatidylinositol 4,5-bisphosphate 3-kinase catalytic subunit gamma isoform (Homo sapiens, UniProt P48736); assay: Inhibition of human recombinant PI3Kgamma using PIP2/ATP as substrate incubated for 20 mins followed by substrate addition by Kinase Glo reagent based luminescence assay
[11] = target: T1, Serine-protein kinase ATM; assay: Inhibition of ATM (unknown origin) using p53 as substrate incubated for 30 mins followed by substrate addition measured after 2 hrs in presence of ATP by HTRF method
[12] = target: DNA-dependent protein kinase catalytic subunit (Homo sapiens, UniProt P78527); assay: Inhibition of DNAPK (unknown origin) using p53-based peptide substrate preincubated for 5 min prior to ATP addition
[13] = target: Glycogen synthase kinase-3 beta (Homo sapiens, UniProt P49841); assay: Inhibition of GSK3beta (unknown origin)
[14] = target: Vascular endothelial growth factor receptor 2 (Homo sapiens, UniProt P35968); assay: Inhibition of KDR (unknown origin)
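For logD in this document: determined by the shake flask method.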

Chain of Voltage-gated inwardly rectifying potassium channel KCNH2 (Q12809 whole entry, the tested form may be a part): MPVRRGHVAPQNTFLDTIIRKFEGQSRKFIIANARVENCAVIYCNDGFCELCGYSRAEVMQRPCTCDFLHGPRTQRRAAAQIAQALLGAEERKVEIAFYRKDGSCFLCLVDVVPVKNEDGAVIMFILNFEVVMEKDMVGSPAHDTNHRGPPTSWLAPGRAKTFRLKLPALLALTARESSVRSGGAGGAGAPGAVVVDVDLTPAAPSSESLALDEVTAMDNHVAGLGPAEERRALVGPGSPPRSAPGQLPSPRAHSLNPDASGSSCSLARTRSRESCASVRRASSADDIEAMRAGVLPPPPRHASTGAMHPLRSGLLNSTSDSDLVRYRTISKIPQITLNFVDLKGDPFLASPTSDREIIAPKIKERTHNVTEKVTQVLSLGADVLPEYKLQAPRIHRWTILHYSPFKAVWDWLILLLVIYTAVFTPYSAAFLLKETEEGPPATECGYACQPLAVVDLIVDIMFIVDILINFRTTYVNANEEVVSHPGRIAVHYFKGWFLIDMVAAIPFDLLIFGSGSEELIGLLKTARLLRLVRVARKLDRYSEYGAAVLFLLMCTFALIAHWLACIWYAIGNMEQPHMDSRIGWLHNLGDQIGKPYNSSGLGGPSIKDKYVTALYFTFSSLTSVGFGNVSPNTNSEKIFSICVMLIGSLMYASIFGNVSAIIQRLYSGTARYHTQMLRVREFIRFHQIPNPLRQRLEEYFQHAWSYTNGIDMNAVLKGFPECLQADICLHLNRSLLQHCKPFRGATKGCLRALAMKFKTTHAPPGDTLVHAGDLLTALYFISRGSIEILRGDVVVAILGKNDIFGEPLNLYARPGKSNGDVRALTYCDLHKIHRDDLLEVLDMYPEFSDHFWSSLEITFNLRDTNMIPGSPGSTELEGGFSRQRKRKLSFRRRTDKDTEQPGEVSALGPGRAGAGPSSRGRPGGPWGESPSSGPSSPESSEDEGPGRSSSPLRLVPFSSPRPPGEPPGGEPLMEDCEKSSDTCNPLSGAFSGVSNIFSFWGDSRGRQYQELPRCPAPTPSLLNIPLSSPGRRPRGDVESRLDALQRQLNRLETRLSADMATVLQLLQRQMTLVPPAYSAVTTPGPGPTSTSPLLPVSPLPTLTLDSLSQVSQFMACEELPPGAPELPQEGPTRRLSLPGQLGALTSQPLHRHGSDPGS
Chain of Serine/threonine-protein kinase ATR (Q13535 whole entry): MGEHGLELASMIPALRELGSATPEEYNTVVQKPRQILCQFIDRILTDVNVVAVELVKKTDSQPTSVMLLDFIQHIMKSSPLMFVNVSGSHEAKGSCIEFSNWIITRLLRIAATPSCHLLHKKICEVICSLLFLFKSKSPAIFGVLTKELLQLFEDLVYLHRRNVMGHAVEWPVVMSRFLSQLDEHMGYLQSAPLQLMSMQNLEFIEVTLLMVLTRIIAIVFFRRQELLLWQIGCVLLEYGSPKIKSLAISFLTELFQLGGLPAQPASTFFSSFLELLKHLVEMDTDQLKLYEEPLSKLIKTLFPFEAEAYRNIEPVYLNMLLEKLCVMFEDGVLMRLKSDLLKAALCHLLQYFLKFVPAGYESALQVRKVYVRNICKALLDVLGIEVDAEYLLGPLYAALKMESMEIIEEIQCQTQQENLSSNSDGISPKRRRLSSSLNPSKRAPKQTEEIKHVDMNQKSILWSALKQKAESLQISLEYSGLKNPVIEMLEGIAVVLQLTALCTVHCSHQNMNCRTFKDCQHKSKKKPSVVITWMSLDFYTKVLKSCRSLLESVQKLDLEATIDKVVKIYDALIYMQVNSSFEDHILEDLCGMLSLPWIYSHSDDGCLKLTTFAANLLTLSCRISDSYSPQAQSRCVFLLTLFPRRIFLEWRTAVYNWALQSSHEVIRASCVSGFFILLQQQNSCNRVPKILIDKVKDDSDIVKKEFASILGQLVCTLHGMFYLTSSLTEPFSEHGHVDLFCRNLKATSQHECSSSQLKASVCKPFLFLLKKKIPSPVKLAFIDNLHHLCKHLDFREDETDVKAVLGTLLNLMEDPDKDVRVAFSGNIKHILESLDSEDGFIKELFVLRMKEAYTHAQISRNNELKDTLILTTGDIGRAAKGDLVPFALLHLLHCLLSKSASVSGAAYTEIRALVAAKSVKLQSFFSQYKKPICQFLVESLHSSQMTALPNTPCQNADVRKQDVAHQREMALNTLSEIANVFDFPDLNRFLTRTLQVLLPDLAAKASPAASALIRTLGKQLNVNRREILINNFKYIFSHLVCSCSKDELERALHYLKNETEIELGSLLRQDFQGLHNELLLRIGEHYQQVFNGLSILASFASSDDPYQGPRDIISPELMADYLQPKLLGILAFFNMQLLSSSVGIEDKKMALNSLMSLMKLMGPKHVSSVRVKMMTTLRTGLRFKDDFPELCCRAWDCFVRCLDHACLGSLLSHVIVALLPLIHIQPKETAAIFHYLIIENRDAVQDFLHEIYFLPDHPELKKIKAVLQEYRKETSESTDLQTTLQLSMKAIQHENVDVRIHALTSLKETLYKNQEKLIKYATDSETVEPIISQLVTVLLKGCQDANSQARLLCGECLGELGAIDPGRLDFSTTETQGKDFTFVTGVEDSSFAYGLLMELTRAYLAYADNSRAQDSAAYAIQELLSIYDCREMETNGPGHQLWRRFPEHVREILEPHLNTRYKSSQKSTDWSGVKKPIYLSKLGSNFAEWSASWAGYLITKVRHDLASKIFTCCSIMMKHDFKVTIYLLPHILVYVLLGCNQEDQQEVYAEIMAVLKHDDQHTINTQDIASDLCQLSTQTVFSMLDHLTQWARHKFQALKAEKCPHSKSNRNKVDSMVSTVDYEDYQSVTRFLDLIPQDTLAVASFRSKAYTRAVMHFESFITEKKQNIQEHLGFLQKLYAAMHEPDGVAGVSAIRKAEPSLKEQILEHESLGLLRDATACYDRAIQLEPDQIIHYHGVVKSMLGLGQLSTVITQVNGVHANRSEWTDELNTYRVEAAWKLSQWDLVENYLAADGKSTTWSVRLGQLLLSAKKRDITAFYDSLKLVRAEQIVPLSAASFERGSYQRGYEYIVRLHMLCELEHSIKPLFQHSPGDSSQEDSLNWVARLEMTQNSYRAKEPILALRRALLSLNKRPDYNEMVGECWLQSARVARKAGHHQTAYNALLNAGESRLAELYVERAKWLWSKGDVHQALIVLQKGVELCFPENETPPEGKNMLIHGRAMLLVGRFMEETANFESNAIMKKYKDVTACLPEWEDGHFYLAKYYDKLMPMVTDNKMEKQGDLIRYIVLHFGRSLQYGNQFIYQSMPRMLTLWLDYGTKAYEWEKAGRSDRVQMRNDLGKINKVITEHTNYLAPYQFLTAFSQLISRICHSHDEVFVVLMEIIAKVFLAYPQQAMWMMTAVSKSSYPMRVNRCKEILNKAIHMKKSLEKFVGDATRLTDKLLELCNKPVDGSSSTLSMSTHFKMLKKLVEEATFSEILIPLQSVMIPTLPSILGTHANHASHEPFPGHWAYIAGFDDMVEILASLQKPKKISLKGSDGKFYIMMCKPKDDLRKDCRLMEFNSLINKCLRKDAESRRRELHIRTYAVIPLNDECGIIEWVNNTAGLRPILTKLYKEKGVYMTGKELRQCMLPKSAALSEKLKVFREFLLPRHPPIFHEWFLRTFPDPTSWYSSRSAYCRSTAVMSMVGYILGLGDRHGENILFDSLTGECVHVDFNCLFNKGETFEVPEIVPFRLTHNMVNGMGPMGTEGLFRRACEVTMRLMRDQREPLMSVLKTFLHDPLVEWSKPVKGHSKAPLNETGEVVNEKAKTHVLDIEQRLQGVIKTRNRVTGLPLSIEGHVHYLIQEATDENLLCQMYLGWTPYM
Chain of Phosphatidylinositol 4,5-bisphosphate 3-kinase catalytic subunit gamma isoform (P48736 whole entry, canonical isoform): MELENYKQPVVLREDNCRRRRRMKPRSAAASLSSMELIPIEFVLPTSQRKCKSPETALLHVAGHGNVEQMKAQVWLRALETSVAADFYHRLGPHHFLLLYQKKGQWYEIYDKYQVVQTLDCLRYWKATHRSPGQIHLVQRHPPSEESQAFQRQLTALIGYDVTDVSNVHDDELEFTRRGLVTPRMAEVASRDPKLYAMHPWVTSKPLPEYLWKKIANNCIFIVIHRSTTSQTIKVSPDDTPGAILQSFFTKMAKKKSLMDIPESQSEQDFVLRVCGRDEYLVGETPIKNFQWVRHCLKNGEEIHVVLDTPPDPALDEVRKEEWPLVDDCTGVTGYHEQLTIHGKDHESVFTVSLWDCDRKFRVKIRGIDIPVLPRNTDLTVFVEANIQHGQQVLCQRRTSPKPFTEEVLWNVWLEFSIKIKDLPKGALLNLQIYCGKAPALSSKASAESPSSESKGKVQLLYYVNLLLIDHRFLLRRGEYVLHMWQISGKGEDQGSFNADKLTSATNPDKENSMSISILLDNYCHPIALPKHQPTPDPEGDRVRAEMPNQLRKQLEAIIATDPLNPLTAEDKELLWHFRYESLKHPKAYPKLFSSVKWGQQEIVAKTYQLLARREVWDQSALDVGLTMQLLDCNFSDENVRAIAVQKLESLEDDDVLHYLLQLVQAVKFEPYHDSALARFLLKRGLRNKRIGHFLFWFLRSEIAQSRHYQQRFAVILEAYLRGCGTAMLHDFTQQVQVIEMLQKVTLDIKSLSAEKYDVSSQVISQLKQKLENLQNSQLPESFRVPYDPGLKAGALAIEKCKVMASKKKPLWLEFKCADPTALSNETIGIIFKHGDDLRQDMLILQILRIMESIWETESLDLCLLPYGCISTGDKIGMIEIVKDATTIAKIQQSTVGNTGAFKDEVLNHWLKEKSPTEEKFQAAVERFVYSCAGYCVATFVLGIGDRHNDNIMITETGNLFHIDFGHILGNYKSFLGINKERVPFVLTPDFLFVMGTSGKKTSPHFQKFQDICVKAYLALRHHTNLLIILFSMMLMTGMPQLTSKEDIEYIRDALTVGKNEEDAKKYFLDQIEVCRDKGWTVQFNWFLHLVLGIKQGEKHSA

Row | SMILES | IC50 [1] [nM] | IC50 [2] [nM] | hepatocyte CLint at 1.5 h [3] [µL/min/1e6 cells] | hepatocyte CLint at 1.5 h [4] [µL/min/1e6 cells] | logD [5] | IC50 [7] [nM] | IC50 [8] [nM] | IC50 [9] [nM] | IC50 [10] [nM] | IC50 [11] [nM] | IC50 [12] [nM] | IC50 [13] [nM] | IC50 [14] [nM] | IC50 [6] [nM]
1 | NC(=O)c1cnc2c(Cl)cc(-c3cccnc3)cc2c1NC1CCOCC1 | > 30000 | > 30000 | < 1 | 7.3 | 2.1 |  |  |  |  |  |  |  |  | 
2 | CCC(CC)CNc1c(C(N)=O)cnc2ccc(-c3ccc(CS(C)(=O)=O)nc3)cc12 | 39 | > 30000 | 15 | 200 | 3.1 |  |  |  |  |  |  |  |  | 1900
3 | CCC(CC)CNc1c(C(N)=O)cnc2ccc(-c3cncnc3)cc12 | 1840 | > 18000 | 46 | 140 | 3.3 |  |  |  |  |  |  |  |  | 
4 | CCC(CC)CNc1c(C(N)=O)cnc2ccc(-c3ccc(CS(C)(=O)=O)cc3)cc12 | 70 | > 30000 | 23 | 210 | 3.5 |  |  |  |  |  |  |  |  | 2100
5 | C[C@@H](Nc1c(C(=O)O)cnc2ccc(-c3cccnc3)cc12)c1ccc(Cl)cc1 | > 30000 | > 30000 |  |  |  |  |  |  |  |  |  |  |  | 
6 | NC(=O)c1cnc2ccc(-c3cccnc3)cc2c1NCC1CCOCC1 | 3230 | 11000 | 12 | 19 | 2.1 |  |  |  |  |  |  |  |  | 
7 | NC(=O)c1cnc2ccc(-c3cccnc3)cc2c1SC1CCCC1 | 9700 | > 23000 | 18 | 120 | 3.2 |  |  |  |  |  |  |  |  | 5100
8 | COCc1ccc(-c2cc3c(N[C@@H](C)C4CCOCC4)c(C(N)=O)cnc3cc2F)cn1 | 52 | > 30000 |  |  |  |  |  |  |  |  |  |  |  | 
9 | CCC(CC)CNc1c(C(N)=O)cnc2ccc(-c3ccnnc3)cc12 | 908 | 2600 | 18 | 95 | 3.1 |  |  |  |  |  |  |  |  | 
10 | CCC(CC)CNc1c(C(N)=O)cnc2ccc(-c3ccc(C)nc3)cc12 | 50 | 5500 | 7.3 | 150 | > 4.3 |  |  |  |  |  |  |  |  | 
11 | C[C@@H](Nc1c(C(N)=O)cnc2ccc(C#N)cc12)c1ccc(Cl)cc1 | 14400 | 4700 | 10 | 41 | 3.5 | 846 | 36 | 139 | 204 | 49 | 109 |  |  | 
12 | NC(=O)c1cnc2ccc(-c3cccnc3)cc2c1NCC1CCCCC1 | 456 | 3000 | 40 | 130 | > 4.3 |  |  |  |  |  |  |  |  | 830
13 | C[C@@H](Nc1ccnc2ccc(-c3cccnc3)cc12)c1ccc(Cl)cc1 | > 30000 | > 30000 |  |  |  |  |  |  |  |  |  |  |  | 
14 | NC(=O)c1cnc2cc(F)c(-c3cccnc3)cc2c1NC1CCOCC1 | 606 | > 30000 | 5.5 | 13 | 2.1 |  |  |  |  |  |  |  |  | 
15 | CCC(CC)CNc1c(C(N)=O)cnc2ccc(-c3cnn(C)c3)cc12 | 525 | 7100 |  |  |  |  |  |  |  |  |  |  |  | 
16 | COc1cc2ncnc(-n3nc(-c4ccccn4)nc3N)c2cc1OC |  | > 30000 | 4.5 | 89 | 2.6 | 4590 | 1490 | 5440 | > 1000 |  | 879 |  |  | 
17 | CCC(CC)CNc1c(C(N)=O)cnc2ccc(-c3ccncc3)cc12 | 418 | 730 | 37 | 76 | 3.3 |  |  |  |  |  |  |  |  | 
18 | C[C@H](Nc1c(C(N)=O)cnc2ccc(-c3cccnc3)cc12)C1CCOCC1 | 168 | > 14000 | 14 | 38 | 2.5 |  |  |  |  |  |  |  |  | 3600
19 | NC(=O)c1cnc2ccc(-c3cccnc3)cc2c1NC1CCCCC1 | 132 | 3200 | 34 | 70 | 3.8 |  |  |  |  |  |  |  |  | 
20 | C[C@@H](Nc1c(C(N)=O)cnc2ccc(-c3cccnc3)cc12)C1CCOCC1 | 730 | 3500 | 14 | 46 | 2.3 |  |  |  |  |  |  |  |  | 4300
21 | CCC(CC)CNc1c(C(N)=O)cnc2ccc(-c3ccc(COC)cc3)cc12 | 373 | > 30000 | 21 | 76 | 4.1 |  |  |  |  |  |  |  |  | 18000
22 | C[C@@H](Nc1c(C(N)=O)cnc2ccc(-c3cccnc3)cc12)c1ccn(C)n1 | 1130 | > 18000 | 3.4 | 120 | 2.3 |  |  |  |  |  |  |  |  | 2800
23 | C[C@H](Nc1c(C(N)=O)cnc2ccc(-c3cccnc3)cc12)c1ccn(C)n1 | 124 | 640 | 10 | 31 | 2.5 |  |  |  |  |  |  |  |  | 11000
24 | CCC(CC)CNc1c(C(N)=O)cnc2ccc(-c3cccnc3)cc12 | 73 | > 11000 | 43 | 140 | 4 |  |  |  |  |  |  |  |  | 
25 | CNC(=O)c1cnc2ccc(-c3cccnc3)cc2c1N[C@H](C)c1ccc(Cl)cc1 | > 30000 | > 30000 |  |  |  |  |  |  |  |  |  |  |  | 
26 | CCC(CC)CNc1c(C(N)=O)cnc2ccc(-c3ccc(COC)nc3)cc12 | 45 | > 30000 | < 6.8 | 110 | > 4.3 |  |  |  |  |  |  | > 100000 | 82000 | 2500
27 | NC(=O)c1cnc2ccc(-c3cccnc3)cc2c1NC1CCOCC1 | 954 | 3100 | < 4.2 | 8.5 | 1.9 |  |  |  |  |  |  |  |  | 

Continued, in another order:

Row | IC50 [1] [nM] | IC50 [2] [nM] | hepatocyte CLint at 1.5 h [3] [µL/min/1e6 cells] | hepatocyte CLint at 1.5 h [4] [µL/min/1e6 cells] | logD [5] | IC50 [7] [nM] | IC50 [8] [nM] | IC50 [9] [nM] | IC50 [10] [nM] | IC50 [11] [nM] | IC50 [12] [nM] | IC50 [13] [nM] | IC50 [14] [nM] | SMILES | IC50 [6] [nM]
28 | 6000 | > 30000 |  |  |  |  |  |  |  |  |  |  |  | CCC(CC)CNc1c(C(N)=O)cnc2c(C)cc(-c3cccnc3)cc12 | 
29 | > 30000 | > 30000 |  |  |  |  |  |  |  |  |  |  |  | NC(=O)c1cnc2c(F)cc(-c3cccnc3)cc2c1NC1CCOCC1 | 
30 |  | > 30000 | 33 | 230 | 4 | 5580 | 458 | 133 | > 1000 |  |  |  |  | O=c1cc(-c2cccc3c2Sc2ccccc2S3)oc(N2CCOCC2)c1 [KU-55933] | 
31 | 137 | 1200 | 23 | 65 | 3.6 |  |  |  |  |  |  |  |  | NC(=O)c1cnc2ccc(-c3cccnc3)cc2c1NC1CCCC1 | 570
32 | 19 | > 30000 | 5.5 | 4.8 | 3 |  |  |  |  |  |  |  |  | COCc1ccc(-c2cc3c(N[C@@H](C)c4nn(C)cc4F)c(C(N)=O)cnc3cc2F)cn1 | 
33 | 63 | > 25000 | 5.7 | 6.4 | 2.6 |  |  |  |  |  |  |  |  | COCc1ccc(-c2ccc3ncc(C(N)=O)c(N[C@@H](C)c4ccn(C)n4)c3c2)c(F)n1 | 
34 |  |  | 13 | 22 | 3.6 | 6550 | 452 | 2140 | > 1000 |  |  |  |  | C[C@@H]1CN(CC(=O)Nc2ccc3c(c2)Cc2cccc(-c4cc(=O)cc(N5CCOCC5)o4)c2S3)C[C@H](C)O1 | 
35 | > 30000 | > 30000 | 6 | 43 | 2.7 |  |  |  |  |  |  |  |  | CCC(CC)CNc1c(C(N)=O)c(C)nc2ccc(-c3cccnc3)cc12 | 680
36 | > 30000 | > 30000 | < 3 | 11 | 1.5 |  |  |  |  |  |  |  |  | NC(=O)c1cnc2ccc(-c3cccnc3)c(F)c2c1NC1CCOCC1 | 13000
37 | 571 | > 15000 |  |  |  |  |  |  |  |  |  |  |  | CCC(CC)CNc1c(C(N)=O)cnc2ccc(-c3cccnn3)cc12 | 
38 | 3250 | > 30000 | 4.3 | 15 | 2.7 |  |  |  |  |  |  |  |  | NC(=O)c1cnc2cc(Cl)c(-c3cccnc3)cc2c1NC1CCOCC1 | 1200
39 |  | > 30000 |  |  |  |  |  |  |  |  |  |  |  | COCc1ccc(-c2cc3c(N[C@@H](C)c4ccn(C)n4)c(C(N)=O)cnc3cc2F)c(F)n1 | 
40 | 87 | > 13000 | 150 | > 300 | 3.7 |  |  |  |  |  |  |  |  | CCC(CC)CNc1c(C(N)=O)cnc2ccc(-c3ccc(CO)nc3)cc12 | 3100

Source: ChEMBL document CHEMBL4477207, “Discovery of Novel 3-Quinoline Carboxamides as Potent, Selective, and Orally Bioavailable Inhibitors of Ataxia Telangiectasia Mutated (ATM) Kinase” (J Med Chem, 2016)
